Results from PMC9868454, “Exploring novel targets of sitagliptin for type 2 diabetes mellitus: Network pharmacology, molecular docking, molecular dynamics simulation, and SPR approaches” (Frontiers in Endocrinology, 2023).
pKd: −log10 of the molar value.

Target: angiotensin-converting enzyme 2 (ACE2) (Homo sapiens, UniProt Q9BYF1)
Experiment: SPR (Biacore T200, ACE2 coupled to CM5 chip, steady-state affinity fit)
Format: binding

angiotensin-converting enzyme 2 (ACE2), sequence (Q9BYF1 18-805): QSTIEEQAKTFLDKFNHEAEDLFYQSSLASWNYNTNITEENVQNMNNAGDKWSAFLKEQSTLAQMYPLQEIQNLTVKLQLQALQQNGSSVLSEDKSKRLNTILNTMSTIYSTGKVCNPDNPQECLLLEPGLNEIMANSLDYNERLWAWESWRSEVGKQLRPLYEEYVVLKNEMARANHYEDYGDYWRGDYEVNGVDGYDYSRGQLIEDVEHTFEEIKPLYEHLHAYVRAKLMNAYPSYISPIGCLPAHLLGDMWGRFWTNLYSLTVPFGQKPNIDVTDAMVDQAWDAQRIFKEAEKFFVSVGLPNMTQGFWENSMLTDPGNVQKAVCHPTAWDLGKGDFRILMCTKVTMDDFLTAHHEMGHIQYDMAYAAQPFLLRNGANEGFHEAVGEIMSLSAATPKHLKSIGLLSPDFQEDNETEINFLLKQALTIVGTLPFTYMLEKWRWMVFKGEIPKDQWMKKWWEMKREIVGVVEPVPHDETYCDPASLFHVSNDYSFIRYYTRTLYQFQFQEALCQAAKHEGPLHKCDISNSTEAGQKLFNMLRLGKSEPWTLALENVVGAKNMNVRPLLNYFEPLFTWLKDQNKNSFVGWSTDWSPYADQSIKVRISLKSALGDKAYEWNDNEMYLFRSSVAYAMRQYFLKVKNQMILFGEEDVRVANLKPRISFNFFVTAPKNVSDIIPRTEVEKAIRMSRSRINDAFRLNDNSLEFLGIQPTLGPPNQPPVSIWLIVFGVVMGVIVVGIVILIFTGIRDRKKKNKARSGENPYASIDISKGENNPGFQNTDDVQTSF

Q: How did the pKd turn out when `N[C@@H](CC(=O)N1CCn2c(nnc2C(F)(F)F)C1)Cc1cc(F)c(F)cc1F` [sitagliptin] was run?
A: 7.45
